The text below walks through data of US6709649B1, “RANTES derived peptides with anti-HIV activity” (Fondazione Centro San Raffaele Del Monte Tabor, priority 1998, dated 2004).

Assay [1] deals with CCR5-dependent HIV-1BaL strain. The assay can be described thus: "cell-free" acute infection test (growth of HIV-1 in pre-activated primary mononuclear cells, p24 antigen). Format: cell-based. The conditions noted are these: at the tested doses. The source says: Some peptides of the invention have been tested to verify their inhibitory activity against HIV virus-1. Two different tests have been used: the “cell-free ” acute infection test and the test of inhibition of the formation of syncitia. The first test evaluates the growth of HIV-1 in primary mononuclear cells pre-activated in vitro and is closer to the natural model of infection. On the other hand, the test of syncitia inhibition evaluates the capability of an inhibitor to inhibit the membrane fusion induced by HIV and it makes use of cells of a continuous line T CD4+ (PM1) chronically infected with an HIV-1 CCR5-dependent (PM1BaL) strain. In both tests, cells were pre-treated with the peptides before exposition to the virus or to 5 the infected cells. Scalar concentrations for each peptide have been tested to calculate the 50% inhibitory dose (ID50), i.e. the dose capable of reducing by 50% the values of the untreated controls. The ID50 values (expressed as micromolar values) of different peptides in the acute infection test are illustrated in the following Table:
The ability of the mutants obtained as described in Example 2, to inhibit the infection by the prototypic macrophage-tropic HIV-1BaL strain, was evaluated in primary cultures of activated mononuclear cells from peripheral blood. The procedure used to infect PBL and to evaluate the production of p24 antigen is described in literature (Scarlatti et al., Nat. Med. November 3:11 1259-65, 1997).

Assay [2] deals with HIV-1 CCR5-dependent (PM1BaL) strain. The assay can be described thus: test of inhibition of the formation of syncitia (PM1 cells chronically infected with HIV-1BaL). It is filed as cell-based. The conditions noted are these: PM1 line infected by HIV-1BaL. From the text: Some peptides of the invention have been tested to verify their inhibitory activity against HIV virus-1. Two different tests have been used: the “cell-free ” acute infection test and the test of inhibition of the formation of syncitia. The first test evaluates the growth of HIV-1 in primary mononuclear cells pre-activated in vitro and is closer to the natural model of infection. On the other hand, the test of syncitia inhibition evaluates the capability of an inhibitor to inhibit the membrane fusion induced by HIV and it makes use of cells of a continuous line T CD4+ (PM1) chronically infected with an HIV-1 CCR5-dependent (PM1BaL) strain. In both tests, cells were pre-treated with the peptides before exposition to the virus or to 5 the infected cells. Scalar concentrations for each peptide have been tested to calculate the 50% inhibitory dose (ID50), i.e. the dose capable of reducing by 50% the values of the untreated controls. The ID50 values (expressed as micromolar values) of different peptides in the acute infection test are illustrated in the following Table: […]

As to Ace-CFAYIARPLPRAHIKEYFY-NH2 [Peptide 2], the “capability to inhibit the acute infection (in words)” value in assay [1] is recorded as “marked increase in the capability to, inhibit the acute infection”. Moreover, in assay [2], the “capability to inhibit the formation of syncitia (in words)” value is given as “increased capability to inhibit the formation of syncitia”.

With “Ace-FAYIARPLPRAHIKEYFY-NH2 (Ac-FAYIARPLPRAHIKEYFY-NH2) [Peptide 1]”, in assay [1], the “capability to inhibit the acute infection (in words)” value is listed as “marked increase in the capability to, inhibit the acute infection”. Also, the “capability to inhibit the formation of syncitia (in words)” value in assay [2] is reported as “increased capability to inhibit the formation of syncitia”. “SGKCSNPAVVFV [RANTES peptide used as control]”: the “capability to inhibit the acute infection (in words)” value in assay [1] was “no antiviral activity”. On the same count and under the same terms, in the case of “YFYTSGKCSNPA [RANTES peptide used as control]” it was “no antiviral activity”; in that of “YTSGKCSNPAVV [B, RANTES peptide used as control]”, “no antiviral activity”.
